Reference: PMC7193532 (Acta Crystallographica. Section D, Structural Biology, 2020)
*1 amine or outer side, *2 acyl side, *3 side chain or, on linkers, in order; H or OH if unused. Where a SMILES comes first, the peptide text is derived from it. Bridges are numbered along the chain shown (N, C = ends). [ ]: non-standard residue; d: D form. The star is where a group is joined. ξ: configuration not given here. Phe(3R-OH) = O=C([C@@H](N[*:1])[C@H](O[*:3])c1ccccc1)[*:2]; NMeTrp(4-OMe) = CN[CH](Cc1c[nH]c2cccc(OC)c12)C(=O)O; X1 = O=C(C(N[*:1])C(O)c1ccccc1)[*:2]; NMeT = CN[CH](C(=O)O)[CH](C)O; NMeI = CC[CH](C)[CH](NC)C(=O)O; ξNMe2Val = CC(C)C(C(=O)*)N(C)C; NMeL = CN[CH](CC(C)C)C(=O)O; NMeV = CN[CH](C(=O)O)C(C)C

Columns and labels:
Format in all cases: binding
[1] = target: ClpC1-NTD MVFER (Mycobacterium tuberculosis, UniProt P9WPC9); details: relative to wild type
[2] = target: ClpC1-NTD FER (Mycobacterium tuberculosis, UniProt P9WPC9); details: relative to wild type
[3] = target: ClpC1-FL K85A (Mycobacterium tuberculosis, UniProt P9WPC9, K85A)
[4] = target: ClpC1-FL L92S/L96P (Mycobacterium tuberculosis, UniProt P9WPC9, L92S/L96P)
[5] = target: ClpC1-FL V14A (Mycobacterium tuberculosis, UniProt P9WPC9, V14A)
[6] = target: ClpC1-FL Q17A (Mycobacterium tuberculosis, UniProt P9WPC9, Q17A)
[7] = target: ClpC1-NTD MAFER (Mycobacterium tuberculosis, UniProt P9WPC9); details: relative to wild type
[8] = target: ClpC1-NTD AAFER (Mycobacterium tuberculosis, UniProt P9WPC9)

SMILES	reduction of binding, insertion of Val before Phe2 [1]	reduction of binding affinity, deletion of Met1 [2]	reduction of binding affinity, K85A [3]	reduction of binding affinity, L92S/L96P [4]	reduction of binding affinity, V14A [5]	reduction of binding, Q17A [6]	decrease of binding, insertion of Ala before Phe2 [7]	binding to double mutant L92S/L96P (in words) [4]	reduction of binding affinity, Met1Ala mutation and Ala insertion [8]
C/C=C/C[C@@H]1NC(=O)[C@H](CC(C)C)N(C)C(=O)[C@H](CC(C)C)NC(=O)[C@H](Cc2ccc(O)c([N+](=O)[O-])c2)NC(=O)[C@H](C)N2C(=O)[C@H](CC(C)C2O)N(C)C(=O)[C@H](Cc2cn(C(C)(C)C3CO3)c3ccccc23)NC1=O (some centres unmarked) [RUF-I, rufomycin I]	sixfold	fivefold	fivefold	threefold	eightfold	17 fold	–	–	–
CCC(C)C(C(=O)NC1C(=O)N(C)C(C(C)O)C(=O)NC(C(C)C)C(=O)N(C)C(CC(C)C)C(=O)NC(C(C)C)C(=O)N(C)C(C(C)C)C(=O)N(C)C(Cc2c[nH]c3cccc(OC)c23)C(=O)NC(C(C)C)C(=O)NC(C(O)c2ccccc2)C(=O)NC(C(C)C)C(=O)OC1C)N(C)C(=O)C(NC(=O)C(C(C)C)N(C)C)C(C)C (centres unmarked) [ECU, ecumicin] (ξNMe2Val-V[NMeI]T[NMeT]V[NMeL]V[NMeV][NMeTrp(4-OMe)]V[X1]V; ester 3-C; configuration not given here)	82 fold	62 fold	ninefold	–	–	sevenfold	72 fold	abolished binding	68 fold
CN[C@H](C(=O)N[C@H](C(=O)N[C@@H]1C(=O)N(C)[C@@H]([C@@H](C)O)C(=O)N[C@@H](C(C)C)C(=O)N(C)[C@@H](CC(C)C)C(=O)N[C@@H](C(C)C)C(=O)N(C)[C@@H](C(C)C)C(=O)N(C)[C@@H](Cc2c[nH]c3cccc(OC)c23)C(=O)N[C@@H](C(C)C)C(=O)N[C@@H]([C@H](O)c2ccccc2)C(=O)N[C@@H](C(C)C)C(=O)O[C@@H]1C)C(C)C)C(C)C [OMS-A, ohmyungsamycin A] (H-[NMeV]VT[NMeT]V[NMeL]V[NMeV][NMeTrp(4-OMe)]V[Phe(3R-OH)]V; ester 3-C)	–	–	–	–	–	–	–	abolished binding	–
